This is an account of results in US12264163B2, “Compounds and methods for treating fibrotic pathologies” (Mayo Foundation for Medical Education and Research, priority 2019, dated 2025).

Molecules are shown by their SMILES.

Experiment [1] deals with YAP/TAZ. In words: YAP/TAZ nuclear localization in IPF patient-derived lung fibroblasts treated with dopaminergic agonists. The note with it: 10 μM, 2 hours. The format is cell-based, human. The method, boiled down:
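Fibroblasts from IPF patients (N=4 patient samples) were exposed to dopaminergic agonists at 10 μM for 2 h before fixation. Cells were immunostained for YAP/TAZ with DAPI counterstain and imaged at 4×. Percent nuclear YAP/TAZ localization was quantified by automated image analysis.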

The subject of experiment [2] is YAP/TAZ. In words: YAP/TAZ localization in lung alveolar epithelial and endothelial cells. As to conditions: pulmonary (alveolar) epithelial and endothelial cells. The format is cell-based, human. Here is the method:
N=4 (****p<0.0001 vs. 0.1% DMSO vehicle control)
N=3 (****p<0.0001 vs. 0.1% DMSO vehicle control).
Human lung fibroblasts and alveolar epithelial cells are treated with MS-9 and influence on YAP/TAZ localization is determined.
Immunofluorescence Microscopy: Cells were plated into 96 well plates (Corning 3603) in their specific growth media and allowed to attach (8 hours). Media was then exchanged for the indicated conditions for each experiment. Cells were fixed in 3.7% formalin (Sigma-Aldrich), permeabilized in 0.25% Triton X-100 (Sigma-Aldrich) and then blocked with 1% BSA for 1 h. Cells or tissue sections were incubated overnight with mouse monoclonal antibody against αSMA (Sigma-Aldrich F3777), and/or a rabbit monoclonal antibody against YAP/TAZ (Cell Signaling D24E4) diluted 1:200 in PBS with 1% BSA. […] For scoring αSMA positive cells (FIG. 12), an observer blinded to the treatment conditions counted αSMA-positive cells using a visual threshold for bright fibrous staining; a minimum of 200 cells was counted for each condition. YAP/TAZ localization was quantified (FIGS. 6-10, 24-26, and 29-30) using Gen5 (Biotek) software. […] Quantification of double positive (YAP/TAZ and αSMA) cells from lung tissue sections (FIG. 17-21) was performed similarly; however separate thresholds were established for both YAP/TAZ and αSMA. A minimum of 4000 cells was quantified for each mouse.

Experiment [3] deals with bleomycin-induced pulmonary fibrosis. In words: Bleomycin mouse model of pulmonary fibrosis. The format is in vivo. The note with it: bleomycin mice. Here is the method:
Bleomycin Mouse Study: In the initial in vivo siRNA study (FIGS. 22 and 23A-23C), adult male age-matched C57BL/6N mice at 6-8 weeks of age were purchased from the National Cancer Institute (NCI)-Frederick Mouse Repository (Frederick, MD, USA). All experiments were performed in accordance with National Institute of Health guidelines and protocols approved by the Massachusetts General Hospital Subcommittee on Research Animal Care, and maintained all mice in a specific pathogen-free (SPF) environment certified by the American Association for Accreditation of Laboratory Animal Care (AAALAC). 6-8 weeks old mice were anesthetized with ketamine and xylazine before exposure of the trachea. Lung fibrosis was induced by intratracheal injection of bleomycin (50 μl at 1.2 U/kg) or phosphate buffered saline (PBS; as control) on day 0. After 14 days Small interfering RNA (siRNA) duplexes targeting mouse Yap (L-046247-01-0005) or Taz (L-058248-01-0005) mRNA (Dharmacon) or nontargeting control siRNA were administered in vivo by intratracheal instillation at a single dose of 25 μg (each siRNA) per mouse. On day 21 Mice were sacrificed and lungs harvested for collagen determination and biochemical analyses. To obtain BAL samples for total protein concentration determination, lungs were lavaged with six 0.5-mL aliquots of PBS. BAL samples were centrifuged at 3,000 g for 20 min at 4° C. and transferred the supernatants to siliconized low-binding Eppendorf tubes (PGC Scientifics) for subsequent analysis. Total protein concentration of the BAL fluid was determined by BCA Protein Assay Kit (Pierce). In the dihydrexidine treatment studies (FIG. 17-21), 8 week old female C57/BL6 mice were purchased from Charles River Laboratories. Mouse lung fibrosis was induced with bleomycin (BLEO; Fresenius Kabi) delivered intratracheally (3 U/kg) to the lungs using MicroSprayer® Aerosolizer (Penn-Century). The Sham mice received sterile 0.9% saline instead using identical methods. Mice were weighed every 24 hrs, and both groups were then randomized at day 10 into DHX and Control treatment groups, matching for the degree of weight change. DHX (5 mg/kg) was administered everyday intranasally (i.n.) dissolved in surfactant (infasurf) which has previously shown to aid in spreading to pulmonary aveoli for 14 days. The control groups of mice received the equivalent vehicle dose of surfactant. Following the final DHX treatment, mice were sacrificed and the right lungs were inflated with 4% paraformaldehyde (PFA) and further incubated in 4% PFA for 24 hours prior processing for paraffin embedding. The left lobe of the lung was snap frozen in liquid nitrogen for RNA isolation and hydroxyproline assay. Experimental procedures were approved by the Mayo Clinic Institutional Animal Care and Use Committee and the animals were handled in accordance with their guidelines.
Histological Scoring: Five μm thick sections were cut from Paraffin embedded lung tissues, and the sections were stained either with hematoxylin and eosin (H&E) or with Masson's Trichrome stain kit (Abcam). All H&E-stained slides and trichrome-stained slides were reviewed in a blinded fashion by a thoracic pathologist. The severity of interstitial and peribronchiolar lung immature and mature fibrosis was estimated on a numerical scale according to Ashcroft et al. For scoring purposes, all H&E stained slides were systematically scanned at 100× magnification and successive 100× fields were scored. Scoring was based on the following scale: 0 (no fibrosis), 1 (minimal interstitial and/or peribronchiolar thickening due to fibrosis), 3 (moderate thickening without obvious architectural distortion), 5 (increased fibrosis with formation of fibrous bands and/or small masses), 7 (severe architectural distortion with large areas of fibrosis and areas of honeycomb changes), and 8 (total fibrous obliteration of the field). The predominant score for each field was recorded. The mean of all scores was calculated for each case. […]

Take `Oc1cc2c(cc1O)[C@H]1c3ccccc3CN[C@@H]1CC2` (racemic) [Dihydrexidine]: the “Nuclear localization (% of total cells)” value with YAP/TAZ [1] (IPF-1 patient fibroblasts) is 13.22 % of total cells. Further, in the experiment with YAP/TAZ [1] (IPF-2 patient fibroblasts), the “Nuclear localization (% of total cells)” value is listed as 21.79 % of total cells. Moreover, in the experiment with YAP/TAZ [1] (IPF-3 patient fibroblasts), the “Nuclear localization (% of total cells)” value is reported as 27.63 % of total cells. Moreover, in the experiment on YAP/TAZ [1] (IPF-4 patient fibroblasts), the “Nuclear localization (% of total cells)” value is given as 21.08 % of total cells. For the same compound, the “YAP/TAZ localization in epithelial / endothelial cells” value in the experiment on YAP/TAZ [2] is on record as “no effect on YAP/TAZ localization”. Also, in experiment [3] (DHX 5 mg/kg i.n. Day 10-24), the “lung remodeling by histology (Ashcroft, blinded pathologist)” value is “nearly completely protected from lung remodeling”; the “lung transcript levels of Acta2, Ctgf, Fn1, Col1a1, Col1a2, Yap and Taz” value is on record as “significantly attenuated”; the “staining for YAP and TAZ in the lungs” value is recorded as “attenuated”; the “total collagen in the lungs (hydroxyproline)” value is “nearly identical to sham treated mice”. In addition, in experiment [3] (DHX 5 mg/kg once daily i.n. from Day 10, vs Bleo control), the weight change result is on record as “lost significantly less weight”. Moreover, in experiment [3] (two doses of DHX on day 10, lungs collected day 11), the “expression of YAP/TAZ target genes in flow-sorted lung cells” value is on record as “selectively blocks expression of YAP/TAZ target genes in lung fibroblasts”.
